The record followed here is US20230081390A1, “INHIBITORS OF RAF KINASES” (Kinnate Biopharma Inc., priority 2019, published 2023).

One assay addresses human BRAF (Homo sapiens, UniProt P15056). Description: Protein kinase assay (33P-ATP filter binding), human BRAF, 10-dose IC50. In kind it is biochemical. Conditions: MEK1 (K97R) substrate 1 micromolar, ATP 25 micromolar, read-out: B-RAF IC50. The method, then:
Protein kinase assay: Assay platform was used to measure kinase/inhibitor interactions as described previously (Anastassiadis et al., 2011). In brief, for each reaction, kinase and substrate were mixed in a buffer containing 20 mM HEPES (pH 7.5), 10 mM MgCl2, 1 mM EGTA, 0.02% Brij35, 0.02 mg/mL BSA, 0.1 mM Na3VO4, 2 mM DTT, and […]. All compounds were solubilized in DMSO. Compounds were then added to each reaction mixture via acoustic dispense using an ECHO 550 nanoliter dispenser. For human RAF1 testing, human MEK1 (K97R) was used as a substrate at a concentration of 3 micromolar, with a final ATP concentration of 10 micromolar. For human BRAF testing, human MEK1 (K97R) was used as a substrate at 1 micromolar concentration, with a final ATP concentration of 25 micromolar. […] After a 20-min incubation, ATP (Sigma-Aldrich, St. Louis, Mo. 63178) and [g33P] ATP (specific activity 10 microCi/microliter) purchased at PerkinElmer (Boston, Mass., 02118 Cat #BLU 003H250UC) were added at a final total concentration of […]. Reactions were carried out at room temperature for 2 hr and spotted onto P81 ion exchange cellulose chromatography paper (Reaction Biology). Filter paper was washed in 0.75% phosphoric acid to remove unincorporated ATP. The percent remaining kinase activity relative to a vehicle-containing (DMSO) kinase reaction was calculated for each kinase/inhibitor pair. IC50 values were calculated using Prism 5 (GraphPad).

The next assay deals with human RAF1 (Homo sapiens, UniProt P04049). Description: Protein kinase assay (33P-ATP filter binding), human RAF1, 10-dose IC50. It is filed as biochemical. The settings on record: MEK1 (K97R) substrate 3 micromolar, ATP 10 micromolar, read-out: RAF-1 IC50. In a few lines:
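Radiometric filter-binding format: 10 µM ATP, 3 µM MEK1 (K97R) as substrate for human RAF1, 2 hr at room temperature in 20 mM HEPES pH 7.5 with 10 mM MgCl2. Compounds were dispensed acoustically from DMSO. IC50 came from percent kinase activity relative to vehicle over a 10-dose series.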

Sequence of human BRAF (P15056 whole entry): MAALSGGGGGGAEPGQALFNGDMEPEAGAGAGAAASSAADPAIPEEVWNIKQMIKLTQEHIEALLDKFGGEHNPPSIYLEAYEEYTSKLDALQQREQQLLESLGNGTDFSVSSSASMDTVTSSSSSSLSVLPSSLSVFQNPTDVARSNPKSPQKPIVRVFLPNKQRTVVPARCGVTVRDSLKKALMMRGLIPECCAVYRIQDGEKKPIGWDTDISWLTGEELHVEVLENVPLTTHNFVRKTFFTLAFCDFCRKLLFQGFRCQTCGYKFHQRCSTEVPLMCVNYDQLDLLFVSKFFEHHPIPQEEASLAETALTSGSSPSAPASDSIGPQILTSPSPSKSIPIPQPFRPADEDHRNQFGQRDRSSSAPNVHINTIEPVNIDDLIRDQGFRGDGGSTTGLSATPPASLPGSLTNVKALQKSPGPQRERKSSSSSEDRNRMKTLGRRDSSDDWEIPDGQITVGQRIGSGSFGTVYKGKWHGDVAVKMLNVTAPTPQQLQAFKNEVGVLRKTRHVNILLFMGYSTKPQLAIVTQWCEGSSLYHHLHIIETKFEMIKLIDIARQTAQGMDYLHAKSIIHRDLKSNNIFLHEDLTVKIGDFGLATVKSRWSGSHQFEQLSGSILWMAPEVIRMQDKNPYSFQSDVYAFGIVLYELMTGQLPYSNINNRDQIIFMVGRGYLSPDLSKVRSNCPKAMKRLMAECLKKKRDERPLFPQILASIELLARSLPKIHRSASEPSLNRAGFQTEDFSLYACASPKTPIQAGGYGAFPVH
Sequence of human RAF1 (P04049 whole entry): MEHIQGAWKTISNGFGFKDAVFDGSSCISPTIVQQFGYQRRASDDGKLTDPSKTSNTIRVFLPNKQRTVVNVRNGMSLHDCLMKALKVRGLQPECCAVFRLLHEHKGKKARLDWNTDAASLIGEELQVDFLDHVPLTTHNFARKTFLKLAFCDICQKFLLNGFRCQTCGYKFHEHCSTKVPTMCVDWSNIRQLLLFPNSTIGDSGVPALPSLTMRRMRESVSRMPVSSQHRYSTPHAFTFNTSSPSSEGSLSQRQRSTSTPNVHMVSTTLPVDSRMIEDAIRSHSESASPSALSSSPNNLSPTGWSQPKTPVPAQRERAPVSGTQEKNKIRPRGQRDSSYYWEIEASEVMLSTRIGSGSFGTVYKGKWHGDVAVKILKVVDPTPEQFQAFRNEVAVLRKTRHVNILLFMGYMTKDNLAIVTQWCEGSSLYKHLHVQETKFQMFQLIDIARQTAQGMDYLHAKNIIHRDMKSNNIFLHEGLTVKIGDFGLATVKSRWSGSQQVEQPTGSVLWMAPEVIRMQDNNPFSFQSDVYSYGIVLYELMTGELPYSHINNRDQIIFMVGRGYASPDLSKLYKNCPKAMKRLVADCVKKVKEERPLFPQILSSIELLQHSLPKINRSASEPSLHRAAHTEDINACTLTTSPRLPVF

As to `Cc1cc(F)c(NC(=O)N2CCCC(C(C)(C)C)C2)cc1-c1cc(OCCO)nc(N2CCOCC2)c1` (racemic) [Example 8, (RS)-3-(tert-butyl)-N-(2-fluoro-5-(2-(2-hydroxyethoxy)-6-morpholinopyridin-4-yl)-4-methylphenyl)piperidine-1-carboxamide], the IC50 at human BRAF is 10 to 100 nM; on human RAF1 it was under 10 nM.
On to `Cc1cc(F)c(NC(=O)N2CCC(C(C)(C)C)C2)cc1-c1cc(OCCO)nc(N2CCOCC2)c1` (racemic) [Example 5, (RS)-3-(tert-butyl)-N-(2-fluoro-5-(2-(2-hydroxyethoxy)-6-morpholinopyridin-4-yl)-4-methylphenyl)pyrrolidine-1-carboxamide], for which the results for the IC50 at human BRAF and at human RAF1 were 10 to 100 nM and under 10 nM, respectively.
Regarding `Cc1cc(F)c(NC(=O)N2CCC(C(F)(F)F)C2)cc1-c1cc(OCCO)nc(N2CCOCC2)c1` (racemic) [Example 3, (RS)-N-(2-fluoro-5-(2-(2-hydroxyethoxy)-6-morpholinopyridin-4-yl)-4-methylphenyl)-3-(trifluoromethyl)pyrrolidine-1-carboxamide], the figures for the IC50 on human BRAF and at human RAF1 were 10 to 100 nM and under 10 nM, respectively.
For `Cc1cc(F)c(NC(=O)N2CCOC(C(F)(F)F)C2)cc1-c1cc(OCCO)nc(N2CCOCC2)c1` (racemic) [Example 10, (RS)-N-(2-fluoro-5-(2-(2-hydroxyethoxy)-6-morpholinopyridin-4-yl)-4-methylphenyl)-2-(trifluoromethyl)morpholine-4-carboxamide], in that order: 10 to 100 nM and under 10 nM.
The matching figures for `Cc1cc(F)c(NC(=O)NCCC(C)(C)C)cc1-c1cc(OCCO)nc(N2CCOCC2)c1` [Example 6, 1-(3,3-dimethylbutyl)-3-(2-fluoro-5-(2-(2-hydroxyethoxy)-6-morpholinopyridin-4-yl)-4-methylphenyl)urea]: 10 to 100 nM and under 10 nM.
As to `Cc1cc(F)c(NC(=O)N2CC[C@@H](C(F)(F)F)C2)cc1-c1cc(OCCO)nc(N2CCOCC2)c1` [Example 1, (R)-N-(2-fluoro-5-(2-(2-hydroxyethoxy)-6-morpholinopyridin-4-yl)-4-methylphenyl)-3-(trifluoromethyl)pyrrolidine-1-carboxamide], the IC50 on human BRAF was 10 to 100 nM; at human RAF1 it was under 10 nM.
The matching figures for `Cc1cc(F)c(NC(=O)N2CCNC(C(F)(F)F)C2)cc1-c1cc(OCCO)nc(N2CCOCC2)c1` (racemic) [Example 7, (RS)-N-(2-fluoro-5-(2-(2-hydroxyethoxy)-6-morpholinopyridin-4-yl)-4-methylphenyl)-3-(trifluoromethyl)piperazine-1-carboxamide]: 100 to 1000 nM and under 10 nM.
For `Cc1cc(F)c(NC(=O)N2CC[C@H](C(F)(F)F)C2)cc1-c1cc(OCCO)nc(N2CCOCC2)c1` [Example 2, (S)-N-(2-fluoro-5-(2-(2-hydroxyethoxy)-6-morpholinopyridin-4-yl)-4-methylphenyl)-3-(trifluoromethyl)pyrrolidine-1-carboxamide], in that order: 10 to 100 nM and under 10 nM.
The matching figures for `Cc1cc(F)c(NC(=O)N2CCCC(C(F)(F)F)C2)cc1-c1cc(OCCO)nc(N2CCOCC2)c1` (racemic) [Example 4, (RS)-N-(2-fluoro-5-(2-(2-hydroxyethoxy)-6-morpholinopyridin-4-yl)-4-methylphenyl)-3-(trifluoromethyl)piperidine-1-carboxamide]: 10 to 100 nM and under 10 nM.
With `Cc1cc(F)c(NC(=O)N2CCNC(C(C)(C)C)C2)cc1-c1cc(OCCO)nc(N2CCOCC2)c1` (racemic) [Example 11, (RS)-3-(tert-butyl)-N-(2-fluoro-5-(2-(2-hydroxyethoxy)-6-morpholinopyridin-4-yl)-4-methylphenyl)piperazine-1-carboxamide], the IC50 at human BRAF is 100 to 1000 nM; on human RAF1, 10 to 100 nM.
Turning to `Cc1ccc(NC(=O)N2CCC(CC(F)(F)F)C2)cc1-c1cc(O[C@@H]2CCNC2)nc(N2CCOCC2)c1` (stereo partly drawn) [Example 203, N-(4-methyl-3-(2-morpholino-6-((R)-pyrrolidin-3-yloxy)pyridin-4-yl)phenyl)-3-(2,2,2-trifluoroethyl)pyrrolidine-1-carboxamide], the IC50 at human RAF1 was under 10 nM.
Still for that read-out and setting: with `Cc1ccc(NC(=O)N2CC=C(C(F)(F)F)C2)cc1-c1cc(O[C@H](C)[C@@H](C)O)nc(N2CCOCC2)c1` [Example 171, N-(3-(2-(((2R,3R)-3-hydroxybutan-2-yl)oxy)-6-morpholinopyridin-4-yl)-4-methylphenyl)-3-(trifluoromethyl)-2,5-dihydro-1H-pyrrole-1-carboxamide] the figure was under 10 nM; with `Cc1cc(F)c(NC(=O)N2CC=C(C(F)(F)F)C2)cc1-c1cc(OCCO)nc(N2CCOCC2)c1` [Example 72, N-[2-fluoro-5-[2-(2-hydroxyethoxy)-6-(morpholin-4-yl)pyriidn-4-yl]-4-methylphenyl]-3-(trifluoromethyl)-2,5-dihydropyrrole-1-carboxamide], under 10 nM.
Still for that read-out and setting: under `Cc1ccc(NC(=O)N2CC[C@H](OC(F)(F)F)C2)cc1-c1cc(OC[C@@H](O)CO)nc(N2CCOCC2)c1` [Example 143, (3S)-N-(3-[2-[(2S)-2,3-dihydroxypropoxy]-6-(morpholin-4-yl)pyridin-4-yl]-4-methylphenyl)-3-(trifluoromethoxy)pyrrolidine-1-carboxamide] stands under 10 nM.
The same measure, in the same setting: with `Cc1cc(F)c(NC(=O)N2CC[C@@H](C(F)(F)F)C2)cc1-c1cnc(OC2CCOCC2)c(N2CCOCC2)c1` (single isomer, unassigned) [Example 31] the figure was under 10 nM; with `Cc1cc(F)c(NC(=O)N2CC[C@@H](C(F)(F)F)C2)cc1-c1cc(OCCO)nc(N2CCOC[C@H]2C)c1` (single isomer, unassigned) [Example 29], under 10 nM; with `Cc1ccc(NC(=O)N2CC[C@@H](CC(F)(F)F)C2)cc1-c1cc(OCC2(O)COC2)nc(N2CCOCC2)c1` [Example 224, (3S)-N-(3-[2-[(3-hydroxyoxetan-3-yl)methoxy]-6-(morpholin-4-yl)pyridin-4-yl]-4-methylphenyl)-3-(2,2,2-trifluoroethyl)pyrrolidine-1-carboxamide], under 10 nM.
With `Cc1cc(F)c(NC(=O)N2CC[C@@H](OC(F)(F)F)C2)cc1-c1cc(OCCO)nc(N2CCOCC2)c1` (single isomer, unassigned) [Example 77], on human RAF1, the IC50 is under 10 nM.
Still for that read-out and setting: under `Cc1ccc(NC(=O)N2CC[C@@H](CC(F)(F)F)C2)cc1-c1cc(O[C@H]2CCC(F)(F)C2)nc(N2CCOCC2)c1` [Example 220, (3S)-N-[3-(2-[[(1S)-3,3-difluorocyclopentyl]oxy]-6-(morpholin-4-yl)pyridin-4-yl)-4-methylphenyl]-3-(2,2,2-trifluoroethyl)pyrrolidine-1-carboxamide] stands under 10 nM.
For the compound `Cc1cc(F)c(NC(=O)N2CCOC(C(C)(C)C)C2)cc1-c1cc(OCCO)nc(N2CCOCC2)c1` (centres unmarked) [Example 9, 2-(tert-butyl)-N-(2-fluoro-5-(2-(2-hydroxyethoxy)-6-morpholinopyridin-4-yl)-4-methylphenyl)morpholine-4-carboxamide], the IC50 at human BRAF was 10 to 100 nM; on human RAF1, under 10 nM.
Turning to `Cc1cc(F)c(NC(=O)N2CCC(C(F)(F)F)C2C)cc1-c1cc(OCCO)nc(N2CCOCC2)c1` (single isomer, unassigned) [Example 67, N-[2-fluoro-5-[2-(2-hydroxyethoxy)-6-(morpholin-4-yl)pyridin-4-yl]-4-methylphenyl]-2-methyl-3-(trifluoromethyl)pyrrolidine-1-carboxamide], at human RAF1, the IC50 is under 10 nM.

By IC50 is commonly meant the concentration that gives 50% inhibition.
